Measurements published in patent US4918064A, “Phenyl glycines for use in reducing neurotoxic injury” (G. D. Searle & Co., priority 1987, dated 1990).

Columns and labels:
hippocampal neurons [1] = test: Glutamate Toxicity Survival Assay, cultured hippocampal neurons (MTT); assay type: cell-based, Sprague-Dawley rat; settings: 5 μM compound
Description: Hippocampal neurons were obtained from embryonic day 17 Sprague-Dawley rats. The brains were removed and the hippocampus dissected, placed in ice-cold Leibovitz L-15 medium, carefully stripped of any remaining meninges, and minced into small pieces using scissors. […] Following incubation, the cells were rinsed with 10% serum-containing medium and dissociated by gentle trituration using a reduced bore diameter Pasteur pipet. The cells were plated on a polylysine-coated (0.5 rg/ml, Sigma) 96-well microtiter plates at 30,000 cells/well.
The neuronal survival assay utilized the compound MTT [3-(4,5-dimethylthiazol-2-yl)-2,5-diphenyl tetrazolium bromide], a pale yellow substrate that is cleaved by the mitochondrial enzyme succinate-dehydrogenase to yield a dark blue formazan product. This process requires active mitochondria, present only in live cells. Cultures of hippocampal neurons grown in 96-well plates were incubated with 1 mg/ml MTT at 36° C. in a 10% CO2 -in-air incubator for 30-60 minutes. At the end of the incubation, a dark blue precipitate outlined only viable cells. The precipitate was then solubilized using 0.08N HCl/isopropanol mixture and the absorbance measured with an ELISA plate reader (Dynatech MR600) using a test wavelength of 570 nm and a reference wavelength of 630 nm. The resulting optical density is directly proportional to the number of viable cells.

NMDA receptor = test: NMDA-specific L-[3H]glutamate receptor binding assay, synaptic plasma membranes; settings: L-[3H]glutamate 12.5 nM, Triton X-100 treated SPM, 0-4° C., 10 min
Description: (§1) Synaptic plasma membranes (SPM) were prepared as previously described [Monahan, J. B. and Michel, J., "Identification and Characterization of an N-methyl-D-aspartate-specific L[^3 H]glutamate Recognition Site in Synaptic Plasma Membranes, J. Neurochem., 48, 1699-1708 (1987)]. The SPM were stored at a concentration of 10-15 mg/ml in 0.32M sucrose, 0.5 mM EDTA, 1 mM MgSO4, 5 mM Tris/SO4, pH 7.4, under liquid nitrogen. The identity and purity of the subcellular fractions were confirmed by both electron microscopy and marker enzymes. Protein concentrations were determined by using a modification of the method of Lowry [Ohnishi, S. T. and Barr, J. K., "A Simplified Method of Quantitating Proteins Using the Biuret and Phenol Reagents", Anal. Biochem., 86, 193-197 (1978)].
Prior to use in the NMDA-specific L-[^3 H]glutamate binding assay the SPM were thawed, diluted twenty fold with 50 mM Tris/acetate, pH 7.4 containing 0.04% (v/v) Triton X-100, incubated for 30 minutes at 37° C. and centrifuged as described above. The Triton X-100 treated membranes were washed with 50 mM Tris/acetate, pH 7.4 and centrifuged at 100,000 g for 15 minutes a total of four times.
(§2) The basic procedure for the receptor subclass binding assays was similar. This general method involved adding the radioligand (12.5 nM L-[^3 H]glutamate; 0.5 nM [^3 H]kainate or 10 nM [^3 H]AMPA) to the appropriate concentration of the test compound and initiating the assay by the addition of ice cold synaptic plasma membranes (0.2-0.45 mg). The binding assays were performed in 1.5 mL centrifuge tubes with the total volume adjusted to 1.0 mL. .Additions of test compounds were made in 50 mM Tris/acetate, pH 7.4 and incubations were carried out at 0°-4° C. The incubation time for the NMDA and the AMPA binding assays was 10 minutes, for the kainate binding assay 60 minutes and for the sodium-dependent glutamate binding assay 15 minutes. The AMPA binding assay contained 100 mM KSCN and the sodium-dependent glutamate binding assay contained 150 mM sodium acetate in addition to the previously described reagents.
(§3) To terminate the incubation, the samples were centrifuged for 15 minutes at 12,000 g and 4° C. in a Beckman Microfuge 12. The supernatant was aspirated and the pelleted membranes dissolved in Beckman BTS-450 tissue solubilizer for a minimum of 6 hours at room temperature. Beckman MP scintillation cocktail containing 7 mL/1 acetic acid was then added and the samples counted on a Beckman LS 5800 or 3801 liquid scintillation counter with automatic corrections for quenching and counting efficiency.
(§4) Nonspecific binding was defined as the residual binding in the presence of either excess L-glutamate (0.1-0.4 mM), kainate (0.01 mM), or NMDA (0.5 mM), and was 15-25% of the total binding in the NMDA binding assay, 19-27% in the AMPA binding assay, 20-30% in the kainate binding assay and 10-15% in the sodium-dependent binding assay. Radioligand binding to the synaptic plasma membranes was analyzed using Scatchard and Hill transformations and the Ki values of the compounds determined using logit-log transformations. Calculations and regression analysis were performed using templates developed for Lotus 1, 2, 3 as previously described [Pullan, L. M. "Automated Radioligand Receptor Binding Analysis with Templates for Lotus", Computer Appln. Biosci., 3 131 (1987)]. Binding results are reported in Table II for example compounds of the invention. […]

[2] = target: Quis (quisqualate) receptor; test: [3H]AMPA (QUIS) receptor binding assay, synaptic plasma membranes; settings: [3H]AMPA 10 nM, 100 mM KSCN, 0-4° C., 10 min
Description: as §1
The SPM were treated identically for the [^3 H]AMPA (QUIS), [^3 H]kainate and sodium-dependent L-[^3 H]-glumatate binding assays. The SPM were thawed at room temperature, diluted twenty-fold with 50 mM Tris/acetate, pH 7.4, incubated at 37° C. for 30 minutes, and centrifuged at 100,000 g for 15 minutes. The dilution, incubation, and centrifugation was repeated a total of three times.
as §2, §3, §4

hippocampal neurons [3] = test: Hypoxia Survival Assay, cultured hippocampal neurons (MTT); assay type: cell-based, Sprague-Dawley rat; settings: 50 μM compound
Description: Hippocampal neurons were obtained from embryonic day 17 Sprague-Dawley rats. The brains were removed and the hippocampus dissected, placed in ice-cold Leibovitz L-15 medium, carefully stripped of any remaining meninges, and minced into small pieces using scissors. The tissue was rinsed with calcium-magnesium-free Hanks' Balanced Salt Solution and incubated with 0.25% trypsin (Worthington), 40 μg/ml DNAase (Sigma) for 30 minutes at 36° C. Following incubation, the cells were rinsed with 10% serum-containing medium and dissociated by gentle trituration using a reduced bore diameter Pasteur pipet. […]
The neuronal survival assay utilized the compound MTT [3-(4,5-dimethylthiazol-2-yl)-2,5-diphenyl tetrazolium bromide], a pale yellow substrate that is cleaved by the mitochondrial enzyme succinate-dehydrogenase to yield a dark blue formazan product. […] The precipitate was then solubilized using 0.08N HCl/isopropanol mixture and the absorbance measured with an ELISA plate reader (Dynatech MR600) using a test wavelength of 570 nm and a reference wavelength of 630 nm. […]
The cells were grown for 2-3 weeks in 5% CO2 -in-air humidified environment at 36° C. to establish a thick network of neuronal processes with numerous spontaneously active synapses. […] Following 2 hours of exposure to normal O2 tension, the cultures were processed for morphological and quantitive biochemical neuronal cell viability assays.

**Q.** For `NC(C(=O)O)c1ccc(CP(=O)(O)O)cc1` (stereo not shown) [Example VI, 4-(Phosphonomethyl)phenylglycine], which “protection of neurons from glutamate toxicity” value (hippocampal neurons [1]) is on record?
**A.** Significant protection

**Q.** And the Ki (NMDA receptor)?
**A.** 3.9 µM

**Q.** What about the Ki [2] of the same compound?
**A.** > 300 µM

**Q.** What about the “protection of neurons from hypoxic insult” value (hippocampal neurons [3]) of the same compound?
**A.** Maximum protection of neurons from hypoxic insult
